Results as given in patent publication US8952024B2, “Herbicidal pyrimidone derivatives” (E I du Pont de Nemours and Company, priority 2009, dated 2015).

Key:
Assay type in all cases: in vivo
[1] = system: barnyardgrass (Echinochloa crus-galli); assay: Test A pre-/postemergence plant response
How it was run: (§1)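 Visual injury rating on a 0–100 scale (0 = no effect, 100 = complete control) was made versus untreated controls after about ten days in the greenhouse. Compounds, formulated in a non-phytotoxic solvent mix containing surfactant, were sprayed preemergence onto loam/sand soil and postemergence onto one- to two-leaf plants.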

corn (Zea mays) = assay: Test A pre-/postemergence plant response
How it was run: as §1

[2] = system: giant foxtail (Setaria faberii); assay: Test A pre-/postemergence plant response
How it was run: as §1

[3] = system: pigweed (Amaranthus retroflexus); assay: Test A pre-/postemergence plant response
How it was run: as §1

[4] = system: barnyardgrass (Echinochloa crus-galli); assay: Test B flooded paddy test; conditions: for Plant response rating, Flood, Barnyardgrass: 250 g ai/ha, flooded paddy test, visual rating on 0 to 100 scale (0 no effect, 100 complete control) after 13 to 15 days; for Plant response rating, Barnyardgrass: Flood (flooded paddy test), 13 to 15 days; for Barnyardgrass plant response rating: Flood, 31 g ai/ha, scale 0 to 100 (0 no effect, 100 complete control)
How it was run: (§2)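 Seedlings reaching 2 leaves are flooded 3 cm deep; test material is delivered to that water, which stays at the same depth. Plants remain in a greenhouse 13–15 days and are then scored by eye versus controls from 0 to 100.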

[5] = system: ducksalad (Heteranthera limosa); assay: Test B flooded paddy test; conditions: for Plant response rating, Flood, Ducksalad: 250 g ai/ha, flooded paddy test, visual rating on 0 to 100 scale (0 no effect, 100 complete control) after 13 to 15 days; for Plant response rating, Ducksalad: Flood (flooded paddy test), 13 to 15 days; for Ducksalad plant response rating: Flood, 31 g ai/ha, scale 0 to 100 (0 no effect, 100 complete control)
How it was run: as §2

rice (Oryza sativa) = assay: Test B flooded paddy test; conditions: for Plant response rating, Flood, Rice: 250 g ai/ha, flooded paddy test, visual rating on 0 to 100 scale (0 no effect, 100 complete control) after 13 to 15 days; for Plant response rating, Rice: Flood (flooded paddy test), 13 to 15 days; for Rice plant response rating: Flood, 31 g ai/ha, scale 0 to 100 (0 no effect, 100 complete control)
How it was run: as §2

[6] = system: umbrella sedge (Cyperus difformis); assay: Test B flooded paddy test; conditions: for Plant response rating, Flood, Sedge, Umbrella: 250 g ai/ha, flooded paddy test, visual rating on 0 to 100 scale (0 no effect, 100 complete control) after 13 to 15 days; for Plant response rating, Sedge, Umbrella: Flood (flooded paddy test), 13 to 15 days; for Sedge, Umbrella plant response rating: Flood, 31 g ai/ha, scale 0 to 100 (0 no effect, 100 complete control)
How it was run: as §2

[7] = Postemergence, 125 g ai/ha, 0 to 100 scale where 0 is no effect and 100 is complete control
[8] = Postemergence, 500 g ai/ha, 0 to 100 scale, 0 = no effect, 100 = complete control, approx. ten days
[9] = Preemergence, 125 g ai/ha, 0 to 100 scale, 0 = no effect, 100 = complete control
[10] = Preemergence, 500 g ai/ha, visual injury, 0 to 100 scale (0 no effect, 100 complete control), approx. ten days
[11] = 62 g ai/ha, scale of 0 to 100 where 0 is no effect and 100 is complete control
[12] = 125 g ai/ha, scale 0 to 100, 0 is no effect, 100 is complete control

Structure (SMILES)	Plant response rating, Barnyardgrass [1, 7]	Plant response rating, Barnyardgrass [1, 8]	Plant response rating, Barnyardgrass [1, 9]	Plant response rating, Barnyardgrass [1, 10]	Plant response rating, Corn (corn (Zea mays); [7])	Plant response rating, Corn (corn (Zea mays); [8])	Plant response rating, Corn (corn (Zea mays); [9])	Plant response rating, Corn (corn (Zea mays); [10])	Plant response rating, Foxtail, Giant [2, 7]	Plant response rating, Foxtail, Giant [2, 8]	Plant response rating, Foxtail, Giant [2, 9]	Plant response rating, Foxtail, Giant [2, 10]	Plant response rating, Pigweed [3, 7]	Plant response rating, Pigweed [3, 8]	Plant response rating, Pigweed [3, 9]	Plant response rating, Pigweed [3, 10]	Plant response rating, Flood, Barnyardgrass [4]	Plant response rating, Barnyardgrass [4, 11]	Plant response rating, Barnyardgrass [4, 12]	Barnyardgrass plant response rating [4]	other results
CCCn1c(-c2ccsc2)ncc(C(=O)C2=C(O)CCCC2=O)c1=O [Compound 93]	90	90	80	100	10	30	0	0	80	90	60	80	100	100	100	100	85	60	75	30	Plant response rating, Flood, Ducksalad [5]: 80; Plant response rating, Ducksalad [5, 11]: 55; Plant response rating, Ducksalad [5, 12]: 80; Ducksalad plant response rating [5]: 40; Plant response rating, Flood, Rice (rice (Oryza sativa)): 45; Plant response rating, Rice (rice (Oryza sativa); [11]): 15; Plant response rating, Rice (rice (Oryza sativa); [12]): 20; Rice plant response rating (rice (Oryza sativa)): 0; Plant response rating, Flood, Sedge, Umbrella [6]: 90; Plant response rating, Sedge, Umbrella [6, 11]: 75; Plant response rating, Sedge, Umbrella [6, 12]: 80; Sedge, Umbrella plant response rating [6]: 70
CCCCCCn1c(-c2ccccc2)ncc(C(=O)C2=C(O)CCCC2=O)c1=O [Compound 94]	90	90	0	30	0	10	0	0	30	80	0	40	100	100	70	100	60	0	40	0	Plant response rating, Flood, Ducksalad [5]: 30; Plant response rating, Ducksalad [5, 11]: 20; Plant response rating, Ducksalad [5, 12]: 25; Ducksalad plant response rating [5]: 0; Plant response rating, Flood, Rice (rice (Oryza sativa)): 35; Plant response rating, Rice (rice (Oryza sativa); [11]): 0; Plant response rating, Rice (rice (Oryza sativa); [12]): 20; Rice plant response rating (rice (Oryza sativa)): 0; Plant response rating, Flood, Sedge, Umbrella [6]: 85; Plant response rating, Sedge, Umbrella [6, 11]: 70; Plant response rating, Sedge, Umbrella [6, 12]: 85; Sedge, Umbrella plant response rating [6]: 20
CCOCCn1c(-c2ccccc2)ncc(C(=O)C2=C(O)CCCC2=O)c1=O [Compound 96]	90	90	90	100	0	20	0	10	70	90	50	80	100	100	100	100	85	65	80	60	Plant response rating, Flood, Ducksalad [5]: 75; Plant response rating, Ducksalad [5, 11]: 0; Plant response rating, Ducksalad [5, 12]: 50; Ducksalad plant response rating [5]: 0; Plant response rating, Flood, Rice (rice (Oryza sativa)): 15; Plant response rating, Rice (rice (Oryza sativa); [11]): 15; Plant response rating, Rice (rice (Oryza sativa); [12]): 15; Rice plant response rating (rice (Oryza sativa)): 10; Plant response rating, Flood, Sedge, Umbrella [6]: 90; Plant response rating, Sedge, Umbrella [6, 11]: 75; Plant response rating, Sedge, Umbrella [6, 12]: 85; Sedge, Umbrella plant response rating [6]: 50
